Reference: US20250051391A1, “PEPTIDE INHIBITORS AND METHODS FOR INHIBITING PROTEIN AGGREGATION IN NEURONS AND NEURODEGENERATIVE DISEASES” (THE GOVERNING COUNCIL OF THE UNIVERSITY OF TORONTO, priority 2021, published 2025)
Ends that are not written are not given here.

How the values were obtained:
CHMP2B = molecular target: T1, CHMP2B (Homo sapiens, UniProt Q9UQN3); experiment: a-syn competition fluorescence polarization assay (FITC-Pdpep1.3 and CHMP2B); type: binding; settings: 50 nM FITC-Pdpep1.3, 1 μM CHMP2B, a-syn titrated
T1 construct: against CHMP2B 1-199 truncation and CHMP2B full length; His tag (implied by Ni-NTA purification; pET-DEST42 vector); made in house; host or cells: E. coli Overexpress C41
T1 sequence (Q9UQN3 whole entry, the tested form may be a part): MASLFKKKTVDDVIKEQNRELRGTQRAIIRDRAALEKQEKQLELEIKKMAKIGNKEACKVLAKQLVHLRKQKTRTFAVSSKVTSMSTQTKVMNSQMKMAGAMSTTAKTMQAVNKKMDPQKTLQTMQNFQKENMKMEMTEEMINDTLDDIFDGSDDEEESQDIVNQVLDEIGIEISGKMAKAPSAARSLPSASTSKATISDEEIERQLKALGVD

[1] = system: rat substantia nigra dopaminergic neurons; experiment: AAV A53T a-syn preclinical rat model of PD; type: in vivo
Method: Adult female Sprague-Dawley rats (250-280 g; Envigo) were pair-housed in cages with wood bedding and had access to food and water ad libitum. The animal colony was maintained in a regular 12-h light/dark cycle. All procedures were approved by the University Health Network Animal Care Committee in accordance with guidelines and regulations set by the Canadian Council on Animal Care.
Animals were secured in a stereotactic frame under isoflurane/oxygen anaesthesia and ketoprofen (5 mg/kg) analgesia. The surgical site was shaved and sterilized with iodine/betadine prior to making a 2 cm incision along the midline. The scalp was exposed and a unilateral injection targeting the SN was performed at coordinates AP−5.2 mm, ML−2 mm and DV−7.4 mm with respect to the bregma as a point of reference. For each animal, a total volume of 2 μl of virus was injected at a rate of 0.5 μl/min using a microinjection pump and 10 μl Hamilton syringe with a 26-gauge needle. For A53T groups, 1 μl (low dose) or 1.34 μl (high dose) of AAV1/2-A53T a-syn (5.1×10^12 genomic particles/ml), 0.14 μl of AAV1/2-Pdpep1.3-GFP or scramble1.3-GFP (5.1×10^12 genomic particles/ml) and 0.86 μl or 0.52 μl of sterile PBS was injected; for EV groups, 1 μl (low dose) or 1.34 μl (high dose) of AAV1/2-EV (5.1×10^12 genomic particles/ml) replaced AAV1/2-A53T. For V1S+SV2 groups, 0.58 μl of AAV1/2-V1S (1.1×10^12 genomic particles/ml), 0.58 μl of AAV1/2-SV2 (1.1×10^12 genomic particles/ml), 0.14 μl of AAV1/2-Pdpep1.3-RFP or scramble1.3-RFP (5.1×10^12 genomic particles/ml) and 0.7 μl of sterile PBS was injected; for the YFP groups, 1.16 μl of AAV1/2-YFP (1.1×10^12 genomic particles/ml), 0.14 μl of AAV1/2-Pdpep1.3-RFP or scramble1.3-RFP (5.1×10^12 genomic particles/ml) and 0.7 μl of sterile PBS was injected. At the end of virus injection, the needle remained in place for 5 minutes before gradual removal.
Spontaneous forepaw use was evaluated using the cylinder test 1 day prior to stereotactic AAV injection, at 21 days post-injection and at 41 days post-injection. Following overnight food restriction, individual rats with right paws marked black were placed into a glass cylinder in front of two mirrors and videos recorded. An observer blinded to treatment conditions later scored the videos by recording whether animals used their left or right forepaw to touch the inner glass surface upon rearing. A total of 5 min of video recording was scored and a minimum of 10 total touches was required for data inclusion (61).
Animals were uthanized by transcardial perfusion with heparinised saline under isoflurane/oxygen anaesthesia. Brains were then removed and the ventral part, including the ventral striatum, was snap frozen in liquid dry ice-cooled isopentane. A single 1 mm thick section of the ventral striatum was immediately cut, using a matrix, for high-performance liquid chromatography (HPLC) analysis of biogenic amines. The dorsal part, including the dorsal striatum, STN, and the SN, was immersion-fixed in 4% paraformaldehyde in 0.1M PBS for 2 days and cryo-protected in 30% sucrose in 0.1M PBS solution for another 3 days until the brains sank. For immunofluorescent staining, 40 μm coronal cryosections were then prepared using a sliding microtome (Leica Microsystems Inc.) and 6 series of sections were stored in cryoprotectant (30% glycerol, 30% ethylene glycol, 40% PBS) at −20° C. until use.
Immunofluorescence staining for a-syn, tyrosine hydroxylase and LAMP1 was performed by washing free-floating sections with PBS-T (0.2% Triton X-100) three times for 10 min each at room temperature. Sections were then incubated in blocking solution (1% BSA, 10% normal goat serum in PBS-T) for 1 h. After blocking, sections were incubated with primary antibodies in antibody solution (2% normal goat serum in PBS-T) overnight at RT. Sections were then washed in PBS and incubated with secondary antibodies diluted in antibody solution for 1 h in the dark at room temperature. […]

[2] = higher titer AAV-A53T a-syn, vs Scramble1.3 condition

## DEEIERQLKALG [PDpep1.3]
CHMP2B
  competition with a-syn for binding to CHMP2B: competed for binding to CHMP2B
[1]; higher titer AAV-A53T a-syn, 6 weeks
  forelimb asymmetry in the cylinder test: comparable to controls
[1]; higher titer AAV-A53T a-syn, 6 weeks post-injection
  dopaminergic neurodegeneration in the SN (TH+ cell counts): mitigated
[1]; [2]
  striatal levels of DOPAC: restored
  striatal levels of HVA: restored
  striatal levels of dopamine: restored
[1]; lower titer AAV-A53T a-syn
  LAMP1-positive puncta in the SN: restored
[1]; lower titer AAV-A53T a-syn, vs Scramble1.3
  total a-syn positive area in the SN: significant reduction
[1]; rats, low titer AAV-A53T a-syn, AAV-expressed GFP peptide
  a-syn mean fluorescence intensity in cells positive for TH and GFP: 0.335±0.025 RFU
